Consider 29 compounds from patent publication US12673947B2 (Cytosinlab Therapeutics Co., Ltd., priority 2020, dated 2026).

Bounds are passed on as bounds.

Test [1] addresses T1, FLT3 (Homo sapiens, UniProt P36888).
T1 construct: purchased Carna 08-145
T1 sequence (P36888 27-993): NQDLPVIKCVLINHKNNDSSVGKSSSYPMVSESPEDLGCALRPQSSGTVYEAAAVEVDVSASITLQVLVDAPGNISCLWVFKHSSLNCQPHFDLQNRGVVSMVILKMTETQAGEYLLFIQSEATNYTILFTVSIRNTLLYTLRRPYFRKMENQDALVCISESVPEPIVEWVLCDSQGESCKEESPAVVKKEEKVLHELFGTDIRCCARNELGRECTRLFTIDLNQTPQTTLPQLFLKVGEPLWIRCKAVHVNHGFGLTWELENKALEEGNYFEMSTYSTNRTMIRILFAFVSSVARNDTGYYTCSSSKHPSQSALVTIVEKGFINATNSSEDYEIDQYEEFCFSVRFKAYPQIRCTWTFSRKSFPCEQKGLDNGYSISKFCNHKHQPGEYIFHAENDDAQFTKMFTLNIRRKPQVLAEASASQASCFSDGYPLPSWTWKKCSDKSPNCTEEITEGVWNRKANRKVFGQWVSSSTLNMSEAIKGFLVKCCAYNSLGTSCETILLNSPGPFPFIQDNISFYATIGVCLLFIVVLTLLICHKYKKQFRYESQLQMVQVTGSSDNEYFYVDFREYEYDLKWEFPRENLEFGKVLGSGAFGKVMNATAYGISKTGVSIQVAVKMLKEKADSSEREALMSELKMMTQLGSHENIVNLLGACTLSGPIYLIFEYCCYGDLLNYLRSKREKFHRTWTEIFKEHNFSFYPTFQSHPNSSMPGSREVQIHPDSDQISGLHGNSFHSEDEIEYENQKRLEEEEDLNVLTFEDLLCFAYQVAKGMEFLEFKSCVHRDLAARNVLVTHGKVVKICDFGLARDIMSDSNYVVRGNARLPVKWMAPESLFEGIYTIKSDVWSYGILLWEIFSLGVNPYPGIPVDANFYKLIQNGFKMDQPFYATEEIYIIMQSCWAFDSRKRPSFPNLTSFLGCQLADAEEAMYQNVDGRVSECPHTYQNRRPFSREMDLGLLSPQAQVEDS
Briefly: FLT3 kinase in vitro inhibitory activity experiment (Caliper mobility shift, conversion rate). As to conditions: IC50 class, read-out: Enzyme activity FLT3. The class given is biochemical. The procedure: Biological Test Example 1: FLT3 Kinase In Vitro Inhibitory Activity Experiment
Centrifuge (manufacturer: Eppendorf, model: 5430), microplate reader (manufacturer: Perkin Elmer, model: Caliper EZ Reader II), Echo 550 (manufacturer: Labcyte, model: Echo 550)
1. Kinase Reaction Process
• (1) 1×Kinase buffer was prepared. • (2) Preparation of the serial compound dilutions: the initial stock (the concentration of the tested compound was 1 μM) was diluted by 3-fold into 10 concentrations, and was single-well detected. The compounds were series diluted to solutions of 10 different concentration (100-folds final concentration) in 384-well plates. 250 nl of solution was transferred to each well of 384-well plate by Echo550. 100% DMSO (250 nl) was added to negative control wells and positive control wells respectively. • (3) Kinase solution (2.5 times final concentration) was prepared with 1×Kinase buffer. • (4) 10 μL of kinase solution (2.5 times final concentration) was added to compound wells and positive control wells respectively: 1×Kinase buffer (10 μL) was added to the negative control wells. • (5) The solution was centrifuged at 1000 rpm for 30 seconds, shaked and mixed, and incubated at room temperature for 10 minutes. • (6) The mixed solution of ATP and Kinase substrate 2 (25/15 times final concentration) was prepared with 1×Kinase buffer. • (7) 15 μL of mixed solution ATP and Kinase substrate 2 (25/15 times final concentration) was added to initiated the reaction. • (8) 384 well plate was centrifuged at 1000 rpm for 30 seconds, shaked and mixed, then incubated at room temperature for 30 minutes. • (9) Stop solution (30 μL) was added to stop kinase reaction, and the solution was centrifuged at 1000 rpm for 30 seconds, shaked and mixed. • (10) The conversion rate was read with Caliper EZ Reader II. 2. Data Analysis Formula for Calculation
Wherein: Conversion %_sample is the reading of the sample conversion; Conversion %_min: negative control well.

The subject of test [2] is MV4;11 cells. Put plainly: MV4;11 in vitro inhibition of proliferation assay (CellTiter-Glo, 72 hours). As to conditions: Homo sapiens, MV4-11, 72 h, IC50 class, read-out: Inhibitory activity of cell proliferation MV4;11. Type of test: cell-based. The source says:
Biological Test Example 2: MV4;11 In Vitro Inhibition of Proliferation Assay
The MV4;11 cell lines were purchased from the cell bank of the Chinese Academy of Sciences, IMDM medium (Gibco, catalog number 12440), fetal bovine serum (Gibco, catalog number 10099141C), penicillin-streptomycin antibiotics (Gibco, catalog number 15140122), DMSO (Sigma, catalog number D2650), Celltiter-Glo kit (CTG) (Promega, catalog number G7573), 384-well clear flat-bottom black cell culture plate (Corning, catalog number 3764), D300e digital dispenser (Tecan, catalog number D300e), SpectraMax i3x microplate reader (MOLECULAR DEVICES, catalog number i3x)
MV4;11 cell was cultivated in IMDM, 10% fetal bovine serum, 1% penicillin-streptomycin antibiotics, and cell density was kept less than 1.0*10E6 cells per ml to ensure that it was always in logarithmic growth phase. Cell viability was greater than 95%.
The compounds to be tested was diluted by 3 times from 10 uM with DMSO to 9 concentrations. 60 nl diluted compound was added to the cell culture plate and three duplicates were set up.
The prepared MV4;11 cell suspension was added to the 384-well plate, and 20 microliters of cell suspension was added per well, i.e., each well contained 2000 MV4;11 cells, of which the final concentration of DMSO was 0.3%. The cell culture plate was placed in 37° C. and incubated in a 5% carbon dioxide incubator for 72 hours.
20 μL of Promega CellTiter-Glo reagent was added to per well, and the plate was incubated at room temperature for 10 minutes when the luminescence signals were stable. SpectraMax i3x microplate reader was used to read signals.
The original data was converted into inhibition rate, and the IC50 value (half inhibition concentration) of the compound was determined by fitting the nonlinear four-parameter curve.
(ATP-based viability assays read luminescence as a measure of living cells.)

As to `CCc1nc2c(N)ncc(-c3ccc(N4CCC(CN5CCN(C)CC5)CC4)c(OC)c3)c2nc1NC1CCOCC1` [Compound 45, 3-ethyl-8-(3-methoxy-4-(4-((4-methylpiperazine-1-yl)methyl)piperidine-1-yl)phenyl)-N2-(tetrahydro-2H-pyran-4-yl)pyridino[3,4-b]pyrazine-2,5-diamine], the figures for the IC50 in test [1] and in test [2] were not above 10 nM and 10 to 100 nM, respectively.

Regarding `CCc1nc2c(N)ncc(-c3ccc(N4CCC(N5CCN(C)CC5)C4)c(OC)c3)c2nc1NC1CCOCC1` (stereo not shown) [Compound 46], the IC50 in test [1] is not above 10 nM; in test [2], 10 to 100 nM.

For `CCc1nc2c(N)ncc(-c3ccc(N4CCC(N(C)CCN(C)C)CC4)c(OC)c3)c2nc1NC1CCOCC1` [Compound 48], the results for the IC50 in test [1] and in test [2] were not above 10 nM and 10 to 100 nM, respectively.

Take `CCc1nc2c(N)ncc(-c3cnn(C4CCNCC4)c3)c2nc1NC1CCOCC1` [Compound 58]: the results for the IC50 in test [1] and in test [2] were not above 10 nM and 10 to 100 nM, respectively.

In the case of `CCc1nc2c(N)ncc(-c3ccc(N4CCC(N5CCN(C)CC5)CC4)c(OC)c3)c2nc1N[C@H]1CC[C@H](O)CC1` [Compound 65], the IC50 in test [1] was not above 10 nM; in test [2], 10 to 100 nM.

For `CCc1nc2c(N)ncc(-c3ccc(N4CCC(N5CCN(C)CC5)CC4)c(OC)c3)c2nc1NC1CCN(C)CC1` [Compound 66], the results for the IC50 in test [1] and in test [2] were not above 10 nM and 10 to 100 nM, respectively.

As to `CCc1nc2c(N)ncc(-c3ccc(N4CCC(N5CCN(C)CC5)CC4)c(OC)c3)c2nc1NC1CCC(O)C1` (stereo not shown) [Compound 67], the IC50 in test [1] was not above 10 nM; in test [2], 10 to 100 nM.

Turning to `CCc1nc2c(N)ncc(-c3ccc(N4CCC(N5CCN(C)CC5)CC4)c(OC)c3)c2nc1NCC(C)(C)O` [Compound 68], the IC50 is not above 10 nM in test [1] and 10 to 100 nM in test [2].

Regarding `CCc1nc2c(N)ncc(-c3ccc(N4CCC(N5CCN(C)CC5)CC4)c(OC)c3)c2nc1N[C@H]1CC[C@H](O)C1` [Compound 69], the IC50 in test [1] is not above 10 nM; in test [2], 100 to 500 nM.

In the case of `CCc1nc2c(N)ncc(-c3ccc(N4CCC(N5CCN(C)CC5)CC4)c(OC)c3)c2nc1N[C@@H]1CC[C@@H](O)C1` [Compound 70], the IC50 in test [1] and in test [2] was not above 10 nM each time.

As for `CCc1nc2c(N)ncc(-c3ccc(N4CCC(N5CCN(C)CC5)CC4)c(OC)c3)c2nc1N[C@H]1CC[C@@H](O)C1` [Compound 71], the figures for the IC50 in test [1] and in test [2] were not above 10 nM and 10 to 100 nM, respectively.

As to `CCc1nc2c(N)ncc(-c3ccc(N4CCC(N5CCN(C)CC5)CC4)c(OC)c3)c2nc1N[C@@H]1CC[C@H](O)C1` [Compound 72], the IC50 in test [1] and in test [2] was not above 10 nM in each case.

On to `CCc1nc2c(N)ncc(-c3ccc(N4CCC(N5CCN(C)CC5)CC4)c(OC)c3)c2nc1NC(C)C` [Compound 77], for which the IC50 was not above 10 nM in test [1] and 10 to 100 nM in test [2].

In the case of `CCc1nc2c(N)ncc(-c3ccc(N4CCC(N5CCN(C)CC5)CC4)c(OC)c3)c2nc1NC1CCCC1O` (stereo not shown) [Compound 78], the IC50 in test [1] is not above 10 nM; in test [2], 10 to 100 nM.

As for `CCc1nc2c(N)ncc(-c3ccc(N4CCC(N5CCN(C)CC5)CC4)c(OC)c3)c2nc1NC1CCOC1` (stereo not shown) [Compound 79], the values for the IC50 in test [1] and in test [2] were not above 10 nM and 10 to 100 nM, respectively.

Turning to `CCc1nc2c(N)ncc(-c3ccc(N4CCC(N5CCN(C)CC5)CC4)c(OC)c3)c2nc1NC1CCCOC1` (stereo not shown) [Compound 83], the IC50 in test [1] was not above 10 nM; in test [2], 10 to 100 nM.

`CCc1nc2c(N)ncc(-c3ccc(N4CCC(N5CCN(C)CC5)CC4)c(OC)c3)c2nc1NCC1CCOCC1` [Compound 85]: the values for the IC50 in test [1] and in test [2] were not above 10 nM and 10 to 100 nM, respectively.

With `CCc1nc2c(N)ncc(-c3ccc(N4CCC(N5CCN(C)CC5)CC4)c(OC)c3)c2nc1NC1CCCC1` [Compound 92], the IC50 in test [1] is not above 10 nM; in test [2], 10 to 100 nM.

With `[2H]C([2H])([2H])N1CCN(C2CCN(c3ccc(-c4cnc(N)c5nc(CC)c(NC6CCOCC6)nc45)cc3OC)CC2)CC1` [Compound 121], the IC50 was not above 10 nM in test [1] and 10 to 100 nM in test [2].

As for `CCc1nc2c(N)ncc(-c3cnn(C4CCN(C5CCN(C)CC5)CC4)c3)c2nc1NC1CCC(O)C1` (stereo not shown) [Compound 134, 3-((5-amino-3-ethyl-8-(1-(1′-methyl-[1,4′-bipiperidine]-4-yl)-1H-pyrazol-4-yl)pyridino[3,4-b]pyrazine-2-yl)amino)cyclopentan-1-ol], the IC50 in test [1] is not above 10 nM; in test [2] it was 10 to 100 nM.

`CCc1nc2c(N)ncc(-c3cnn(C4CCN(C5CCN(C)CC5)CC4)c3)c2nc1NC1CCOCC1` [Compound 135]: the IC50 in test [1] was not above 10 nM; in test [2], 10 to 100 nM.

As to `CCc1nc2c(N)ncc(-c3cnn(C4CCN(C)CC4)c3)c2nc1NC1CCOCC1` [Compound 136], the IC50 in test [1] is not above 10 nM; in test [2], 10 to 100 nM.

For the compound `CCc1nc2c(N)ncc(-c3ccn(C)n3)c2nc1NC1CCOCC1` [Compound 138], the figures for the IC50 in test [1] and in test [2] were 100 to 500 nM and more than 500 nM, respectively.

With `CCc1nc2c(N)ncc(-c3ccc(N4CCC(N5CCN(C)CC5)CC4)c(OC(F)F)c3)c2nc1NC1CCOCC1` [Compound 139], the IC50 in test [1] is not above 10 nM; in test [2], 10 to 100 nM.

Turning to `CCc1nc2c(N)ncc(-c3cnn(CC4CCN(C5CCN(C)CC5)CC4)c3)c2nc1NC1CCOCC1` [Compound 155], the IC50 was not above 10 nM in test [1] and 10 to 100 nM in test [2].

As to `CCc1nc2c(N)ncc(-c3cnn(C4CCN(CCO)CC4)c3)c2nc1NC1CCOCC1` [Compound 156], the IC50 in test [1] is not above 10 nM; in test [2] it was 10 to 100 nM.

In the case of `CCc1nc2c(N)ncc(-c3cnn(C4CCN(CC5CCNCC5)CC4)c3)c2nc1NC1CCOCC1` [Compound 157], the IC50 was not above 10 nM in test [1] and 10 to 100 nM in test [2].

Take `CCc1nc2c(N)ncc(-c3cnn(C4CCN(CC5CCN(C)CC5)CC4)c3)c2nc1NC1CCOCC1` [Compound 158]: the IC50 is not above 10 nM in test [1] and 10 to 100 nM in test [2].

With `CCc1nc2c(N)ncc(-c3cnn(C4CCN(C5CCNCC5)CC4)c3)c2nc1NC1CCOCC1` [Compound 160], the IC50 in test [1] is not above 10 nM; in test [2], 10 to 100 nM.
